{"source": "patent US20250176553A1", "about": "“SOLUTION FOR […] AND METHOD OF PRODUCING THEREOF” (OCT, Inc., priority 2022, published 2025)", "key": {"[1]": {"tested_on": "Streptococcus mutans biofilms", "conditions": "for Absorbance, Average value: average of samples 1-6; for Absorbance, Average value / Absorbance: 590 nm; for Absorbance: individual samples 1-6, 24 hours culture", "description": "(§1) FIGS. 3 to 6 show the experimental results in which Streptococcus mutans strains are actually used. Streptococcus mutans is a facultative anaerobe and a gram-positive streptococcus. It produces insoluble, sticky glucans that stick to tooth surfaces. It is one of the bacteria that mainly cause dental caries. THB (TODD-HEWITT BROTH) supplemented with 2% (w/v) sucrose was used as the medium. Sucrose is a sugar composed of the monosaccharides glucose and fructose with an α-1,2-glycosidic linkage and one of the disaccharides. THB manufactured by Becton, Dickinson and Company was used. For sucrose, “CASRN” manufactured by FUJIFILM Wako Pure Chemical Corporation was used. The plate used for culture was a Thermo Scientific Nunclon Delta Surface 96 well. The incubator used was a Panasonic multi-gas incubator MCO-5MUV-PJ. Culturing was conducted at 37° C. under an atmosphere of 5% CO2 gas, 5% O2 gas and 90% N2 gas.\n(§2) Devices and the like used to measure residual biofilms are described below. For staining, 0.1% Crystal Violet from FUJIFILM Wako Pure Chemical Corporation was used. It was dissolved in distilled water to 0.1% (w/v).\n(§3) Life Technologies EVOS XL Core was used as the microscope for photography. […] Co., Ltd. was used as the absorption spectrometer. The data processing software was “SF6” and the absorbance wavelength was 590 nm.\nStreptococcus mutans was diluted in 2% sucrose-containing THB and 10 inoculated samples of 100 μL each were plated onto cell culture plates (Thermo Scientific Nunclon Delta Surface 96well). […] No test solution was added to one of the 10 inoculated samples.\n(§4) The samples were then cultured in a multi-gas incubator for 24 hours to allow biofilms to form on the bottom of each plate. After culturing, the plates were washed with distilled water and stained with 0.1% Crystal Violet solution for 10 minutes. After staining, the plates were washed again with distilled water, dried and then observed and photographed with a bright field inverted microscope.\n(§5) Crystal Violet was then extracted with 100 μL of 99.5% ethanol (FUJIFILM Wako Pure Chemical Corporation), and the absorbance was measured at a wavelength of 590 nm using an absorption spectrometer grating microplate reader."}, "[2]": {"tested_on": "Streptococcus mutans biofilms", "conditions": "for Absorbance, Average value: average of samples 1-6; for Absorbance: individual samples 1-6, medium replaced after biofilm formation, further 24 hours", "description": "as §1, §2, §3\n(§6) Streptococcus mutans was diluted in 2% sucrose-containing THB and 10 inoculated samples of 100 μL each were plated onto cell culture plates (Thermo Scientific Nunclon Delta Surface 96well). The samples were then cultured in a multi-gas incubator for 24 hours to allow biofilms to form on the bottom of each plate.\nThe media were removed and the plates were washed with distilled water 24 hours after the start of cultivation. […] The samples were further cultured in a multi-gas incubator for 24 hours. After culturing, the plates were washed with distilled water and stained with 0.1% Crystal Violet solution for 10 minutes. After staining, the plates were washed again with distilled water, dried and then observed and photographed using a bright field inverted microscope."}, "[3]": {"tested_on": "Streptococcus mutans biofilms", "conditions": "for Absorbance, Average value: average of samples 1-6, 590 nm; for Absorbance trend: FIG. 5", "description": "as §1, §2, §3, §6\nThe samples were further cultured in a multi-gas incubator for 24 hours. After culturing, the plates were washed with distilled water and stained with 0.1% Crystal Violet solution for 10 minutes. After staining, the plates were washed again with distilled water, dried and then observed and photographed using a bright field inverted microscope.\nas §5"}, "Fn bacteria biofilms": {"tested_on": "Fn bacteria biofilms", "conditions": "for Absorbance, Average value: average of samples 1-5", "experimental": "THB (TODD-HEWITT BROTH) supplemented with 2% (w/v) sucrose was used as the medium. Sucrose is a sugar composed of the monosaccharides glucose and fructose with an α-1,2-glycosidic linkage and one of the disaccharides. THB manufactured by Becton, Dickinson and Company was used. For sucrose, “CASRN” manufactured by FUJIFILM Wako Pure Chemical Corporation was used. The plate used for culture was a Thermo Scientific Nunclon Delta Surface 96 well. The incubator used was a Panasonic multi-gas incubator MCO-5MUV-PJ. Culturing was conducted at 37° C. under an atmosphere of 5% CO2 gas, 5% O2 gas and 90% N2 gas.\nFn bacteria were diluted in 2% sucrose-containing THB and 10 inoculated samples of […] each were plated onto cell culture plates (Thermo Scientific Nunclon Delta Surface 96well). […] No test solution was added to one of the […] inoculated samples.\nas §4, with “washed” for “washed again”, “water again” for “water, dried”, “dried.” for “then observed and photographed with a bright field inverted microscope.”\nas §5"}, "[4]": {"conditions": "for Viscosity: 4 cc added to 150 g test sample, 25° C.", "protocol": "The starch syrup used was manufactured by KATO SANGYO CO., LTD. (product name “Kanpy starch syrup”) and the vegetable jelly used was from COOP (manufacturer: Ina Food Industry Co., Ltd.) (product name “Coop Agar”).\nSolutions for destroying biofilms adjusted to various pH values and a test solution were added to test mixtures of starch syrup and Coop Agar and the viscosity of each mixture was measured. Viscosity was measured using a “Viscotester (high viscosity type) VT-06” manufactured by RION Co., Ltd.\nFirst, starch syrup and Coop Agar were mixed in a beaker at a ratio of 34 to 5 and the viscosity was measured with a Viscotester (high viscosity type) VT-06. […] The mixture of starch syrup and Coop Agar to be used for the test (test sample) was prepared weighing 150 grams. […] To 150 g of the test sample, 4 cc of the test solution was added and the measurement was performed with a Viscotester (high viscosity type) VT-06. The room temperature was 25° C. and humidity was 63% when the test was conducted."}, "hibiscus leaf": {"tested_on": "hibiscus leaf", "conditions": "adjusted to pH 0.5; leaf surface wetted, observed after 20 hours", "experimental": "A hibiscus leaf was divided into left and right halves by the central vein. […] The surfaces of the half leaves were observed after 20 hours."}}, "note": "Where “and” joins values, the source holds several entries; their conditions need not be identical. Equal entries are not always repeated. Where two headings read alike, the source gives them in different places.", "data": [{"smiles": "[2H]OS(=O)(=O)O[2H]", "note": "[deuterated sulfuric acid (D2SO4)]", "values": [{"measurement": "Colour of stained plate (photograph, remaining biofilm)", "setting": "[1]; pH 0.8, 1.2 and 1.5, FIG. 3 upper panel", "result": "biofilm formation is significantly inhibited and destroyed"}, {"measurement": "Absorbance, Average value", "setting": "[1]; pH 0.8", "result": 0.089}, {"measurement": "Absorbance", "setting": "[1]; pH 0.8", "result": "0.089 (3×) and 0.090 (2×) and 0.088"}, {"measurement": "Absorbance, Average value", "setting": "[1]; pH 1.2", "result": 0.096}, {"measurement": "Absorbance, Average value", "setting": "[1]; pH 1.5", "result": 0.100}, {"measurement": "Absorbance", "setting": "[1]; pH 2.3", "result": 0.734}, {"measurement": "Absorbance", "setting": "[1]; pH 3.3", "result": 0.876}, {"measurement": "Absorbance", "setting": "[1]; pH 3.7", "result": 0.874}, {"measurement": "Absorbance", "setting": "[1]; pH 4.0", "result": 0.733}, {"measurement": "Biofilm formation from absorbance trend", "setting": "[1]; pH value below 2.3, FIG. 4", "result": "almost no biofilm was formed"}, {"measurement": "Colour of stained plate (photograph, remaining biofilm)", "setting": "[2]; lower pH values, FIG. 3 lower panel", "result": "more biofilms were destroyed"}, {"measurement": "Absorbance, Average value", "setting": "[2]; pH 0.5", "result": 0.590}, {"measurement": "Absorbance", "setting": "[2]; pH 0.5", "result": "0.438 and 0.570"}, {"measurement": "Absorbance, Average value", "setting": "[2]; pH 0.8", "result": 0.729}, {"measurement": "Absorbance", "setting": "[2]; pH 0.8", "result": "0.649 and 0.678"}, {"measurement": "Absorbance", "setting": "[2]; pH 1.2", "result": "0.948 and 0.729 and 0.723"}, {"measurement": "Absorbance, Average value", "setting": "[2]; pH 2.0", "result": 0.989}, {"measurement": "Absorbance", "setting": "[2]; pH 2.0", "result": "0.951 and 0.966 and 0.921"}, {"measurement": "Absorbance, Average value", "setting": "[2]; pH 2.3", "result": 1.083}, {"measurement": "Absorbance", "setting": "[2]; pH 2.3", "result": "1.091 and 1.052 and 1.038"}, {"measurement": "Absorbance, Average value", "setting": "[2]; pH 2.7", "result": 1.098}, {"measurement": "Absorbance", "setting": "[2]; pH 2.7", "result": "1.167 and 1.149 and 1.070"}, {"measurement": "Absorbance, Average value", "setting": "[2]; pH 3.0", "result": 1.038}, {"measurement": "Absorbance", "setting": "[2]; pH 3.0", "result": "1.036 and 1.113"}, {"measurement": "Absorbance, Average value", "setting": "[2]; pH 3.3", "result": 1.113}, {"measurement": "Absorbance", "setting": "[2]; pH 3.3", "result": "1.044 and 1.117 and 1.054"}, {"measurement": "Absorbance, Average value", "setting": "[2]; pH 3.7", "result": 1.107}, {"measurement": "Absorbance", "setting": "[2]; pH 3.7", "result": "1.157 and 1.116 and 1.040"}, {"measurement": "Biofilm destruction from absorbance trend", "setting": "[2]; pH below 2.0, FIG. 6", "result": "biofilms are destroyed"}, {"measurement": "Colour of stained plate (photograph, remaining biofilm)", "setting": "[3]; lower pH values, FIG. 3 middle panel", "result": "more biofilms were destroyed"}, {"measurement": "Absorbance, Average value", "setting": "[3]; pH 0.8", "result": 0.678}, {"measurement": "Absorbance, Average value", "setting": "[3]; pH 1.2", "result": 1.164}, {"measurement": "Absorbance, Average value", "setting": "[3]; pH 1.5", "result": 1.250}, {"measurement": "Absorbance, Average value", "setting": "[3]; pH 2.3", "result": 1.288}, {"measurement": "Absorbance, Average value", "setting": "[3]; pH 2.7", "result": 1.375}, {"measurement": "Absorbance, Average value", "setting": "[3]; pH 3.0", "result": 1.457}, {"measurement": "Absorbance, Average value", "setting": "[3]; pH 3.3", "result": 1.226}, {"measurement": "Absorbance, Average value", "setting": "[3]; pH 3.7", "result": 1.354}, {"measurement": "Absorbance, Average value", "setting": "[3]; pH 4.0", "result": 1.346}, {"measurement": "Absorbance trend", "setting": "[3]; pH value below 1.5", "result": "absorbance decreased rapidly"}, {"measurement": "Absorbance trend", "setting": "[3]; pH value below 3.0", "result": "absorbance decreased gradually"}, {"measurement": "Absorbance, Average value", "setting": "Fn bacteria biofilms; pH 0.5, 590 nm", "result": 0.123}, {"measurement": "Absorbance", "setting": "Fn bacteria biofilms; pH 0.5, individual samples 1-5, 590 nm, 24 hours culture", "result": "0.123 (2×) and 0.124 (2×) and 0.122"}, {"measurement": "Absorbance, Average value", "setting": "Fn bacteria biofilms; pH 2.0, 590 nm", "result": 0.320}, {"measurement": "Absorbance, Average value", "setting": "Fn bacteria biofilms; pH 3.0, 590 nm", "result": 0.386}, {"measurement": "Absorbance, Average value", "setting": "Fn bacteria biofilms; pH 4.0, 590 nm", "result": 0.425}, {"measurement": "Absorbance, Average value", "setting": "Fn bacteria biofilms; pH 5.0, 590 nm", "result": 0.441}, {"measurement": "Absorbance, Average value", "setting": "Fn bacteria biofilms; pH 6.0, 590 nm", "result": 0.465}, {"measurement": "Biofilm formation from absorbance trend", "setting": "Fn bacteria biofilms; pH value below 4.5, compared to pH 6.0, FIG. 7", "result": "biofilm formation was made more difficult"}, {"measurement": "Viscosity reduction compared to pH 7.0", "setting": "[4]; pH 0.5", "result": "⅓"}, {"measurement": "Viscosity", "setting": "[4]; test solution pH 0.5", "result": 130, "unit": "dPa · s"}, {"measurement": "Viscosity", "setting": "[4]; test solution pH 2.0", "result": 150, "unit": "dPa · s"}, {"measurement": "Viscosity", "setting": "[4]; test solution pH 3.0", "result": 180, "unit": "dPa · s"}, {"measurement": "Viscosity", "setting": "[4]; test solution pH 4.0", "result": 210, "unit": "dPa · s"}, {"measurement": "Viscosity", "setting": "[4]; test solution pH 5.0", "result": 240, "unit": "dPa · s"}, {"measurement": "Viscosity", "setting": "[4]; test solution pH 6.0", "result": 310, "unit": "dPa · s"}, {"measurement": "Leaf surface damage (white spotted areas, dead leaf cells)", "setting": "hibiscus leaf", "result": "the white spotted areas surrounded by dotted lines are significantly smaller"}]}, {"smiles": "O=S(=O)(O)O", "note": "[sulfuric acid (H2SO4), reference compound]", "values": [{"measurement": "Leaf surface damage (white spotted areas, dead leaf cells)", "setting": "hibiscus leaf", "result": "areas where leaf cells are dead"}]}]}
